Patent US20070203212A1, “METHOD OF TREATING OSTEOARTHRITIS” (WARNER-LAMBERT COMPANY, priority 2002, published 2007)

Experiments:
[1] = tested on: monosodium iodoacetate (MIA)-induced osteoarthritis; experiment: MIA rat model, acute single oral dose: change in hind paw weight distribution (joint pain); type: in vivo; conditions: for shift in weight bearing potential (joint pain) versus pre-dose: 2, 4 and 6 hours post administration
Experimental: It should be appreciated that in Biological Methods 1, 2, 4, and 5 below, hind paw weight bearing differentials between the paw of the limb having the control joint (in animals administered test compound vehicle only) and the paw of the limb having the contralateral test joint (in control or inducement animals administered test compound vehicle only and in treatment animals administered test compound dissolved in test compound vehicle) were determined using an incapacitance tester, model 2KG (Linton Instrumentation, Norfolk, United Kingdom). The incapacitance tester has a chamber on top with an outwardly sloping front wall that supports a rat's front limbs, and two weight sensing pads, one for each hind paw, that facilitates this determination. The hind paw weight bearing differentials were expressed in grams and calculated as follows: (the average weight in grams placed on the control limb minus the average weight in grams placed on the contralateral test limb for each of the inducement or treatment animals) minus (the average weight in grams placed on the control limb minus the average weight in grams placed on the contralateral test limb for each of the control animals). All results were statistically analyzed by comparing the average results for an induction or treatment group with the average result for its control group at the same time point using analysis of covariance (“ANCOVA”) followed by the Hoehberg's procedure and those with statistical significance had p<0.05 unless otherwise noted.
The rats were anesthetized with 5% volume/volume (“v/v”) isoflurane gas and maintained with 2% v/v isoflurane gas. The anesthetized rats were given a single intra-articular injection of 1 mg of MIA through the infrapatellar ligament of the right knee. MIA was dissolved in physiologic saline and administered in a volume of 50 μL. The contralateral control knee was injected with 50 μL of physiologic saline. Administration of isoflurane gas was discontinued, and the rats became fully conscious about 5 minutes later.
Shifts in hind paw weight distribution from the right to the left hind paws supporting the right (arthritic) and the left (contralateral control) hind leg knee joints were utilized as an index of joint pain and as a measure of compound efficacy. An incapacitance tester (Model 2KG, Linton Instrumentation, UK) was employed for determination of hind paw weight distribution. Each data point is the mean of three readings of 5 seconds duration.
CI-1027 (i.e., 6-(5-carboxy-5-methyl-hexyloxy)-2,2-dimethyl-hexanoic acid, calcium salt) was dissolved in hydroxypropylmethylcellulose (“HPMC”) vehicle (0.05% HPMC+0.2% Tween 80; compound amount was adjusted based on the percent of free acid, i.e., 6-(5-carboxy-5-methyl-hexyloxy)-2,2-dimethyl-hexanoic acid).
[…] Rats were then given a single, 10, 30, or 100 mg/kg, dose of CI-1027 via oral gavage (PO). Changes in hind paw weight distribution were determined 2, 4 and 6 hours post-compound administration.
6-(5-carboxy-5-methyl-hexyloxy)-2,2-dimethyl-hexanoic acid, calcium salt (“CI-1027”) and rofecoxib was tested in the rat MIA model in an acute dosing paradigm as described previously. MIA was injected into the right knee and saline into the left knee of all rats on Day 0. […] Two hours later, the rats were reassessed. The results for inhibition of pain, expressed as a percentage±standard error of the mean, are shown below in Table 5. The percent inhibition of pain was determined as described above in Biological Method 1. […] N=8 rats per group.

[2] = Blood pressure in normal healthy humans; type: in vivo, human
[3] = tested on: experimental osteoarthritis (anterior cruciate ligament section); experiment: Experimental osteoarthritis in rabbit (EOA in Rabbit); type: in vivo; conditions: 30 or 10 mg/kg/dose three times per day, 8 weeks; 'if these EOA studies were performed'
Experimental: Normal rabbits are anaesthetized and anteromedial incisions of the right knees performed. The anterior cruciate ligaments are visualized and sectioned. The wounds are closed and the animals are housed in individual cages, exercised, and fed ad libitum. Rabbits are given either vehicle (water) or 6-(5-carboxy-5-methyl-hexyloxy)-2,2-dimethyl-hexanoic acid, calcium salt, or a pharmaceutically acceptable salt thereof, (10 rabbits per group). Each group is dosed three times per day with the 6-(5-carboxy-5-methyl-hexyloxy)-2,2-dimethyl-hexanoic acid, calcium salt, or a pharmaceutically acceptable salt thereof, group receiving 30-mg/kg/dose or 10-mg/kg/dose. The rabbits are euthanized 8 weeks after surgery and the proximal end of the tibia and the distal end of the femur are removed from each animal.
The cartilage changes on the femoral condyles and tibial plateaus are graded separately under a dissecting microscope (Stereozoom, Bausch & Lomb, Rochester, N.Y.). […] The surface area changes are measured and expressed in mm^2. […]
Representative specimens of synovial membrane from the medial and lateral knee compartments are dissected from underlying tissues. […] The average score is calculated and considered as a unit for the whole knee. […]
Mean values and SEM are calculated and statistical analysis is done using the Mann-Whitney U-test.

CC(C)(CCCCOCCCCC(C)(C)C(=O)[O-])C(=O)[O-].[Ca+2] [CI-1027, 6-(5-carboxy-5-methyl-hexyloxy)-2,2-dimethyl-hexanoic acid, calcium salt]
shift in weight bearing potential (joint pain) versus pre-dose ([1]; 10 mg/kg PO single dose on Day 14): did not significantly alter | shift in weight bearing potential (joint pain) versus pre-dose ([1]; 30 mg/kg PO single dose on Day 14): only the change at the 4-hour post dose time point was statistically significant | shift in weight bearing potential (joint pain) versus pre-dose ([1]; 100 mg/kg PO single dose on Day 14): statistically significant | Mean pain alleviation at 2 hours post administration (% ± SEM) ([1]; CI-1027 10 mg/kg PO alone, Day 14): 20 ± 9% | Inhibition of Pain (% versus control), MIA (acute) ([1]; single oral dose 30 mg/kg on Day 7, 4 hours post dose): 67 ± 8% | effect on blood pressure [2]: no effect or perhaps even slightly (1-5 mmHg) decreases | lesion size on tibial plateaus / cartilage damage [3]: reduce the size of the lesion on the tibial plateaus
